A word on the melting point: it is the temperature, or range, at which the solid turns liquid.

`COc1ccc(-c2[nH]nc3c2C(=O)c2c(NC(=O)NNC(=O)c4ccc(O)c(O)c4)cccc2-3)cc1` [Example CLXI, 3-(4-methoxyphenyl)-5-(2-(3,4-dihydroxybenzoyl)hydrazinecarboxamido)indeno[1,2-c]pyrazol-4-one]: the melting point is > 300 °C.

`COc1ccc(-c2[nH]nc3c2C(=O)c2c(NC(=O)NNC(=O)c4ccccc4N)cccc2-3)cc1` [Example CLXV, 3-(4-methoxyphenyl)-5-(2-(2-aminobenzoyl)hydrazinecarboxamido)indeno[1,2-c]pyrazol-4-one]: the melting point worked out at 257 °C.

Regarding `COc1ccc(-c2[nH]nc3c2C(=O)c2c(NC(=O)NN(C)C)cccc2-3)cc1` [Example LXIV, 3-(4-methoxyphenyl)-5-(dimethylaminocarbamoyl)aminoindeno[1,2-c]pyrazol-4-one], the melting point is > 300 °C.

Molecule `CN1CCN(CC(=O)Nc2cccc3c2C(=O)c2c-3n[nH]c2-c2ccc(N3CCOCC3)cc2)CC1` [Example LXXXII, 3-(4-(4-morpholinyl)phenyl)-5-((4-methyl-1-piperazinyl)acetamido)indeno[1,2-c]pyrazol-4-one] displayed a melting point of 258 °C.

Turning to `CC(=O)Nc1cccc2c1C(=O)c1c-2n[nH]c1-c1cccs1` [Example LXXXIX, 3-(2-thienyl)-5-(acetamido)indeno[1,2-c]pyrazol-4-one], the melting point stood at 269 °C.

Take `CC(=O)Nc1cccc2c1C(=O)c1c-2n[nH]c1C(C)C` [Example LXXXVI, 3-(i-propyl)-5-(acetamido)indeno[1,2-c]pyrazol-4-one]: the melting point was > 250 °C.

`CC(=O)Nc1cccc2c1C(=O)c1c-2n[nH]c1C(C)(C)C` [Example LXXXVIII, 3-(t-butyl)-5-(acetamido)indeno[1,2-c]pyrazol-4-one]: the melting point was > 250 °C.

`COc1ccc(-c2[nH]nc3c2C(=O)c2c(NC(=O)NCc4ccc(N)cc4)cccc2-3)cc1` [Example XLIV, 3-(4-methoxyphenyl)-5-(4-aminobenzylcarbamoyl)aminoindeno[1,2-c]pyrazol-4-one]: the melting point was > 300 °C.

In the case of `COc1ccc(-c2[nH]nc3c2C(=O)c2c(NC(=O)CCNc4ccncc4)cccc2-3)cc1` [Example XXXV, 3-(4-methoxyphenyl)-5-(4-pyridinylaminomethylacetamido)indeno[1,2-c]pyrazol-4-one], the melting point was > 300 °C.

For the origin of these results see US7250435B2, “Acylsemicarbazides as cyclin dependent kinase inhibitors useful as anti-cancer and anti-proliferative agents” (Bristol-Myers Squibb Pharma Company, priority 1999, dated 2007).
